Measured values: patent publication US20260198493A1, “HYDRAZIDE COMPOUND AND AGRICULTURAL/HORTICULTURAL FUNGICIDE” (Nippon Soda Co., Ltd., priority 2022, published 2026)

Assays:
Fusarium graminearum = assay: microbe, parasite or virus in culture; type: cell-based; conditions: 96 h, read-out: growth inhibition ratio
Colletotrichum acutatum = assay: Fungicidal effect test against fungi causing apple anthracnose; conditions: 96 h, read-out: growth inhibition ratio
Botrytis cinerea [1] = assay: Control test of cucumber gray mold (sprayed young cucumber seedlings); type: in vivo; conditions: 96 h, four days after inoculation; for pest or weed control at 25 ppm: 25 ppm by mass spray; for pest or weed control at 125 ppm: 125 ppm by mass spray
Method: Then, the drug liquid was sprayed onto young cucumber seedlings cultivated in a nursery pot (variety “Jihai”-based, cotyledon stage), and then air-dried. […] They were left still in a moist room at 20° C. Four days after inoculation, leaves of the young cucumber seedlings were visually observed, and the control value was calculated from the lesion area ratio in accordance with the following equation. [formula]

Venturia inaequalis = assay: Control test of apple scab disease (sprayed young apple seedlings); type: in vivo; conditions: 125 ppm by mass spray, 12 to 14 days after inoculation
Glomerella cingulata = assay: Fungicidal effect test against fungi causing grape ripe rot disease; conditions: Colletotrichum gloeosporioides, 72 h, read-out: growth inhibition ratio
[2] = system: Erysiphe graminis f.sp.tritici; assay: Control test of wheat powdery mildew disease (sprayed young wheat seedlings); type: in vivo; conditions: Blumeria graminis, 144 h, 125 ppm by mass spray, six days after inoculation
Botrytis cinerea [3] = type: cell-based; conditions: 120 h, 25 ppm by volume, Vogel medium, 20° C., five days, dark, read-out: growth inhibition ratio

COC(=O)N(Cc1ccc(C)cc1C)NC(=O)c1c(OC)cncc1Oc1cccc(C2CC2)c1F [b-208]
≥ 75%: inhibition of growth at 25 ppm (Fusarium graminearum) | inhibition of growth at 25 ppm (Colletotrichum acutatum) | pest or weed control at 25 ppm (Botrytis cinerea [1]) | pest or weed control at 125 ppm (Botrytis cinerea [1]) | pest or weed control at 125 ppm (Venturia inaequalis) | inhibition of growth at 25 ppm (Glomerella cingulata) | pest or weed control at 125 ppm [2] | inhibition of growth at 25 ppm (Botrytis cinerea [3])

COC(=O)N(Cc1ccc(C)cc1C)NC(=O)c1c(Cl)cncc1Oc1cccc(Cl)c1F [b-231]
≥ 75%: inhibition of growth at 25 ppm (Fusarium graminearum) | inhibition of growth at 25 ppm (Colletotrichum acutatum) | pest or weed control at 25 ppm (Botrytis cinerea [1]) | pest or weed control at 125 ppm (Botrytis cinerea [1]) | pest or weed control at 125 ppm (Venturia inaequalis) | inhibition of growth at 25 ppm (Glomerella cingulata) | pest or weed control at 125 ppm [2] | inhibition of growth at 25 ppm (Botrytis cinerea [3])

COC(=O)N(Cc1ccc(C)cc1C)NC(=O)c1c(F)cncc1Oc1cccc(C2CC2)c1F [b-199]
≥ 75%: inhibition of growth at 25 ppm (Fusarium graminearum) | inhibition of growth at 25 ppm (Colletotrichum acutatum) | pest or weed control at 25 ppm (Botrytis cinerea [1]) | pest or weed control at 125 ppm (Botrytis cinerea [1]) | pest or weed control at 125 ppm (Venturia inaequalis) | inhibition of growth at 25 ppm (Glomerella cingulata) | pest or weed control at 125 ppm [2] | inhibition of growth at 25 ppm (Botrytis cinerea [3])

COC(=O)N(Cc1ccc(Cl)cc1Cl)NC(=O)c1cc(C)ncc1Oc1cccc(C2CC2)c1F [b-75]
≥ 75%: inhibition of growth at 25 ppm (Fusarium graminearum) | inhibition of growth at 25 ppm (Colletotrichum acutatum) | pest or weed control at 25 ppm (Botrytis cinerea [1]) | pest or weed control at 125 ppm (Botrytis cinerea [1]) | pest or weed control at 125 ppm (Venturia inaequalis) | inhibition of growth at 25 ppm (Glomerella cingulata) | pest or weed control at 125 ppm [2] | inhibition of growth at 25 ppm (Botrytis cinerea [3])

COC(=O)N(Cc1ccc(C)cc1Cl)NC(=O)c1c(C)cnnc1Oc1cccc(C2CC2)c1F [b-177]
≥ 75%: inhibition of growth at 25 ppm (Fusarium graminearum) | inhibition of growth at 25 ppm (Colletotrichum acutatum) | pest or weed control at 25 ppm (Botrytis cinerea [1]) | pest or weed control at 125 ppm (Botrytis cinerea [1]) | pest or weed control at 125 ppm (Venturia inaequalis) | inhibition of growth at 25 ppm (Glomerella cingulata) | pest or weed control at 125 ppm [2] | inhibition of growth at 25 ppm (Botrytis cinerea [3])

COC(=O)N(Cc1ccc(C)cc1C)NC(=O)c1c(C)cnnc1Oc1cccc(Cl)c1F [b-191]
≥ 75%: inhibition of growth at 25 ppm (Fusarium graminearum) | inhibition of growth at 25 ppm (Colletotrichum acutatum) | pest or weed control at 25 ppm (Botrytis cinerea [1]) | pest or weed control at 125 ppm (Botrytis cinerea [1]) | pest or weed control at 125 ppm (Venturia inaequalis) | inhibition of growth at 25 ppm (Glomerella cingulata) | pest or weed control at 125 ppm [2] | inhibition of growth at 25 ppm (Botrytis cinerea [3])

CCOC(=O)N(Cc1ccc(C)cc1C)NC(=O)c1cc(C)ncc1Oc1cccc(C2CC2)c1F [b-33]
≥ 75%: inhibition of growth at 25 ppm (Fusarium graminearum) | inhibition of growth at 25 ppm (Colletotrichum acutatum) | pest or weed control at 125 ppm (Botrytis cinerea [1]) | pest or weed control at 125 ppm (Venturia inaequalis) | inhibition of growth at 25 ppm (Glomerella cingulata) | pest or weed control at 125 ppm [2] | inhibition of growth at 25 ppm (Botrytis cinerea [3])

CCc1cc(C(=O)NN(Cc2ccc(OC)cc2C)C(=O)OC)c(Oc2cccc(C3CC3)c2F)nn1 [b-154]
≥ 75%: inhibition of growth at 25 ppm (Fusarium graminearum) | inhibition of growth at 25 ppm (Colletotrichum acutatum) | pest or weed control at 25 ppm (Botrytis cinerea [1]) | pest or weed control at 125 ppm (Botrytis cinerea [1]) | pest or weed control at 125 ppm (Venturia inaequalis) | inhibition of growth at 25 ppm (Glomerella cingulata) | pest or weed control at 125 ppm [2] | inhibition of growth at 25 ppm (Botrytis cinerea [3])

COC(=O)N(Cc1ccc(C)cc1C)NC(=O)c1cc(Br)ncc1Oc1cccc(Br)c1F [b-111]
≥ 75%: inhibition of growth at 25 ppm (Fusarium graminearum) | inhibition of growth at 25 ppm (Colletotrichum acutatum) | pest or weed control at 125 ppm (Botrytis cinerea [1]) | pest or weed control at 125 ppm (Venturia inaequalis) | inhibition of growth at 25 ppm (Glomerella cingulata) | pest or weed control at 125 ppm [2] | inhibition of growth at 25 ppm (Botrytis cinerea [3])

COC(=O)N(Cc1ccc(OC)cc1C)NC(=O)c1cc(C)nnc1Oc1cccc(Cl)c1F [b-168]
≥ 75%: inhibition of growth at 25 ppm (Fusarium graminearum) | inhibition of growth at 25 ppm (Colletotrichum acutatum) | pest or weed control at 125 ppm (Botrytis cinerea [1]) | pest or weed control at 125 ppm (Venturia inaequalis) | inhibition of growth at 25 ppm (Glomerella cingulata) | pest or weed control at 125 ppm [2] | inhibition of growth at 25 ppm (Botrytis cinerea [3])

COC(=O)N(Cc1ccc(OC)cc1Cl)NC(=O)c1cc(C)nnc1Oc1cccc(C2CC2)c1F [b-171]
≥ 75%: inhibition of growth at 25 ppm (Fusarium graminearum) | inhibition of growth at 25 ppm (Colletotrichum acutatum) | pest or weed control at 25 ppm (Botrytis cinerea [1]) | pest or weed control at 125 ppm (Botrytis cinerea [1]) | pest or weed control at 125 ppm (Venturia inaequalis) | inhibition of growth at 25 ppm (Glomerella cingulata) | pest or weed control at 125 ppm [2] | inhibition of growth at 25 ppm (Botrytis cinerea [3])

COC(=O)N(Cc1ccc(C)cc1C)NC(=O)c1cc(Cl)nnc1Oc1cccc(Cl)c1F [b-169]
≥ 75%: inhibition of growth at 25 ppm (Fusarium graminearum) | inhibition of growth at 25 ppm (Colletotrichum acutatum) | pest or weed control at 125 ppm (Botrytis cinerea [1]) | pest or weed control at 125 ppm (Venturia inaequalis) | inhibition of growth at 25 ppm (Glomerella cingulata) | pest or weed control at 125 ppm [2] | inhibition of growth at 25 ppm (Botrytis cinerea [3])

COC(=O)N(Cc1ccc(Br)cc1C)NC(=O)c1cc(C)nnc1Oc1cccc(C2CC2)c1F [b-45]
≥ 75%: inhibition of growth at 25 ppm (Fusarium graminearum) | inhibition of growth at 25 ppm (Colletotrichum acutatum) | pest or weed control at 25 ppm (Botrytis cinerea [1]) | pest or weed control at 125 ppm (Botrytis cinerea [1]) | pest or weed control at 125 ppm (Venturia inaequalis) | inhibition of growth at 25 ppm (Glomerella cingulata) | pest or weed control at 125 ppm [2] | inhibition of growth at 25 ppm (Botrytis cinerea [3])

C=Cc1cncc(Oc2cccc(C3CC3)c2F)c1C(=O)NN(Cc1ccc(C)cc1C)C(=O)OC [b-211]
≥ 75%: inhibition of growth at 25 ppm (Fusarium graminearum) | inhibition of growth at 25 ppm (Colletotrichum acutatum) | pest or weed control at 25 ppm (Botrytis cinerea [1]) | pest or weed control at 125 ppm (Botrytis cinerea [1]) | inhibition of growth at 25 ppm (Glomerella cingulata) | pest or weed control at 125 ppm [2] | inhibition of growth at 25 ppm (Botrytis cinerea [3])

COC(=O)N(Cc1ccc(C)cc1C)NC(=O)c1c(C)cncc1Oc1cccc(C2CC2)c1 [b-149]
≥ 75%: inhibition of growth at 25 ppm (Fusarium graminearum) | inhibition of growth at 25 ppm (Colletotrichum acutatum) | pest or weed control at 25 ppm (Botrytis cinerea [1]) | pest or weed control at 125 ppm (Botrytis cinerea [1]) | pest or weed control at 125 ppm (Venturia inaequalis) | inhibition of growth at 25 ppm (Glomerella cingulata) | pest or weed control at 125 ppm [2] | inhibition of growth at 25 ppm (Botrytis cinerea [3])

COC(=O)N(Cc1ccc(C)cc1C)NC(=O)c1c(Oc2cccc(C3CC3)c2F)cnc2c1OC(C)(C)C=C2 [b-213, Methyl 2-(7-(3-cyclopropyl-2-fluorophenoxy)-2,2-dimethyl-2H-pyrano[3,2-b]pyridine-8-carbonyl)-1-(2,4-dimethylbenzyl)hydrazine-1-carboxylate]
≥ 75%: inhibition of growth at 25 ppm (Fusarium graminearum) | inhibition of growth at 25 ppm (Colletotrichum acutatum) | pest or weed control at 25 ppm (Botrytis cinerea [1]) | pest or weed control at 125 ppm (Botrytis cinerea [1]) | inhibition of growth at 25 ppm (Glomerella cingulata) | pest or weed control at 125 ppm [2] | inhibition of growth at 25 ppm (Botrytis cinerea [3])

COC(=O)N(Cc1ccc(C)cc1C)NC(=O)c1cc(C)nnc1Oc1cccc(C#N)c1 [b-37]
≥ 75%: inhibition of growth at 25 ppm (Fusarium graminearum) | inhibition of growth at 25 ppm (Colletotrichum acutatum) | pest or weed control at 125 ppm (Botrytis cinerea [1]) | inhibition of growth at 25 ppm (Glomerella cingulata) | pest or weed control at 125 ppm [2] | inhibition of growth at 25 ppm (Botrytis cinerea [3])

COC(=O)N(Cc1ccc(C)cc1C)NC(=O)c1cc(C)nnc1Oc1cccc(C2CC2)c1F [b-6, Methyl 2-(3-(3-cyclopropyl-2-fluorophenoxy)-6-methylpyridazine-4-carbonyl)-1-(2,4-dimethylbenzyl)hydrazine-1-carboxylate]
≥ 75%: inhibition of growth at 25 ppm (Fusarium graminearum) | pest or weed control at 25 ppm (Botrytis cinerea [1]) | pest or weed control at 125 ppm (Botrytis cinerea [1]) | pest or weed control at 125 ppm (Venturia inaequalis) | pest or weed control at 125 ppm [2]

COC(=O)N(Cc1ccc(C)cc1C)NC(=O)c1ccncc1Oc1ccccc1 [b-188]
≥ 75%: inhibition of growth at 25 ppm (Fusarium graminearum) | inhibition of growth at 25 ppm (Colletotrichum acutatum) | pest or weed control at 25 ppm (Botrytis cinerea [1]) | pest or weed control at 125 ppm (Botrytis cinerea [1]) | inhibition of growth at 25 ppm (Glomerella cingulata) | pest or weed control at 125 ppm [2] | inhibition of growth at 25 ppm (Botrytis cinerea [3])

Cc1ccc(CN(C=O)NC(=O)c2cc(C)nnc2Oc2cccc(C3CC3)c2F)c(C)c1 [b-3, 3-(3-cyclopropyl-2-fluorophenoxy)-N′-(2,4-dimethylbenzyl)-N′-formyl-6-methylpyridazine-4-carbohydrazide]
≥ 75%: inhibition of growth at 25 ppm (Fusarium graminearum) | inhibition of growth at 25 ppm (Colletotrichum acutatum) | pest or weed control at 25 ppm (Botrytis cinerea [1]) | pest or weed control at 125 ppm (Botrytis cinerea [1]) | inhibition of growth at 25 ppm (Glomerella cingulata) | pest or weed control at 125 ppm [2] | inhibition of growth at 25 ppm (Botrytis cinerea [3])

COC(=O)N(Cc1ccc(OC)cc1C)NC(=O)c1c(Cl)cncc1Oc1cccc(Cl)c1F [b-207]
≥ 75%: inhibition of growth at 25 ppm (Fusarium graminearum) | inhibition of growth at 25 ppm (Colletotrichum acutatum) | pest or weed control at 25 ppm (Botrytis cinerea [1]) | pest or weed control at 125 ppm (Botrytis cinerea [1]) | inhibition of growth at 25 ppm (Glomerella cingulata) | pest or weed control at 125 ppm [2] | inhibition of growth at 25 ppm (Botrytis cinerea [3])

Cc1ccc(CN(C=O)NC(=O)c2cc(C)ncc2Oc2cccc(C3CC3)c2F)c(C)c1 [b-14]
≥ 75%: inhibition of growth at 25 ppm (Fusarium graminearum) | inhibition of growth at 25 ppm (Colletotrichum acutatum) | pest or weed control at 25 ppm (Botrytis cinerea [1]) | pest or weed control at 125 ppm (Botrytis cinerea [1]) | inhibition of growth at 25 ppm (Glomerella cingulata) | pest or weed control at 125 ppm [2] | inhibition of growth at 25 ppm (Botrytis cinerea [3])

C#Cc1cccc(Oc2nnc(C)cc2C(=O)NN(Cc2ccc(C)cc2C)C(=O)OC)c1 [b-138]
≥ 75%: inhibition of growth at 25 ppm (Fusarium graminearum) | inhibition of growth at 25 ppm (Colletotrichum acutatum) | pest or weed control at 25 ppm (Botrytis cinerea [1]) | pest or weed control at 125 ppm (Botrytis cinerea [1]) | pest or weed control at 125 ppm (Venturia inaequalis) | inhibition of growth at 25 ppm (Glomerella cingulata) | inhibition of growth at 25 ppm (Botrytis cinerea [3])

COC(=O)N(Cc1ccc(C)cc1C)NC(=O)c1c(F)cncc1Oc1cccc(Cl)c1F [b-200]
≥ 75%: inhibition of growth at 25 ppm (Fusarium graminearum) | inhibition of growth at 25 ppm (Colletotrichum acutatum) | pest or weed control at 25 ppm (Botrytis cinerea [1]) | pest or weed control at 125 ppm (Botrytis cinerea [1]) | inhibition of growth at 25 ppm (Glomerella cingulata) | pest or weed control at 125 ppm [2] | inhibition of growth at 25 ppm (Botrytis cinerea [3])
